# Assay results taken from paper PMC10367051, “Comprehensive Mechanistic View of the Hydrolysis of Oxadiazole-Based Inhibitors by Histone Deacetylase 6 (HDAC6)” (ACS Chemical Biology, 2023).
# Experiments:
# [1] = system: HEK293/HDAC6 cell lysates (stably transfected with human HDAC6); assay: Inhibitor hydrolysis in HEK293/HDAC6 cell lysates (LC-MS/MS); type: in vitro ADME; conditions: 20 μM 8, 2.5 mg mL^–1 protein, 37 °C
# Protocol: HEK293 cells stably transduced with full-length human HDAC6 were generated following the protocol published previously.[40] Briefly, Lenti-X 293T and HEK293T cells were grown in T75 flasks in the DMEM/F-12/10% fetal bovine serum (FBS) medium under an atmosphere containing 5% CO2 at 37 °C. The Lenti-X 293T cells were transfected with the combination of pMD.2G, psPAX2, and pHR_CMV_MM320_hsHD6 (Figure S2) using Lipofectamine2000 (Invitrogen) according to the manufacturer’s protocol. Three days post-transfection, the virion-rich medium was collected by centrifugation, supplemented with polybrene (final concentration 10 μg mL^–1), and added to adherent HEK293T cells grown to 100% confluency. Three days post-infection, transduced HEK293T cells were expanded in FreeStyle 293 medium (GIBCO) supplemented with 1% FBS in an Erlenmeyer flask (suspension culture, 110 RPM). Transduction efficacy was determined by flow cytometry analysis to be >95%.
# Mass spectrometry quantification of inhibitors/reaction products was carried out with a Shimadzu LCMS-8040 instrument (Shimadzu, HPLC Prominence system). […] Multiple reaction monitoring (MRM) parameters were optimized for each analyte, and corresponding major CID fragments were used for quantification. Analytes were quantified using corresponding calibration curves generated from pure compounds dissolved in water. […]
# wild-type zHDAC6 = target: T1, wild-type zHDAC6 (Danio rerio, UniProt F8W4B7); assay: Inhibitor hydrolysis in vitro by purified wild-type HDAC6 (LC-MS/MS); type: biochemical; conditions: 20 μM 8, 2 μM zHDAC6, 30 °C
# T1 construct: Danio rerio HDAC6 (amino acids 440–798; zHDAC6); His (N, cleaved yes); MBP (N, cleaved yes); made in house; host or cells: RIPL Escherichia coli
# T1 sequence (F8W4B7 440-798): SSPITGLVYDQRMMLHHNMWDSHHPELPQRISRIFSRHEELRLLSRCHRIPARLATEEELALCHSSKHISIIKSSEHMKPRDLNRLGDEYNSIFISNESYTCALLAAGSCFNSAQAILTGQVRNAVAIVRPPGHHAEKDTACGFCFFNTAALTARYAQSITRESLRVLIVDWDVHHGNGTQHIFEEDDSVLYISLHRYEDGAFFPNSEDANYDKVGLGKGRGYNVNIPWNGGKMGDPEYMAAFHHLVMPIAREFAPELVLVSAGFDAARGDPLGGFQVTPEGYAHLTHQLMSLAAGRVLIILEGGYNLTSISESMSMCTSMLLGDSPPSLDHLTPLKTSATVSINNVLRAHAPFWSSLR
# Protocol: The second catalytic domain of Danio rerio HDAC6 (amino acids 440–798; zHDAC6) was expressed in RIPL Escherichia coli as described previously using the pEC566-zHDAC6 expression vector.[16],[38] Briefly, bacteria were incubated at 37 °C with shaking (250 rpm) until the optical density reached an OD600 = 0.5. Then, the culture was cooled to 18 °C for 1 h, and recombinant protein expression was induced by the addition of 75 μM isopropyl β-D-1-thiogalactopyranoside together with 200 μM ZnSO4. The culture was grown at 18 °C for an additional 18 h and harvested by centrifugation at 5500g for 15 min. […] The purity of protein preparations was monitored by SDS-PAGE (Figure S2).
# Mass spectrometry quantification of inhibitors/reaction products was carried out with a Shimadzu LCMS-8040 instrument (Shimadzu, HPLC Prominence system). […] Multiple reaction monitoring (MRM) parameters were optimized for each analyte, and corresponding major CID fragments were used for quantification. Analytes were quantified using corresponding calibration curves generated from pure compounds dissolved in water.
# […] Four microliter aliquots of reaction mixtures were injected into the system directly from the 96-well plate, and inhibitors/reaction products were quantitated as described above.
# [2] = Control reaction without the enzyme (assay buffer, LC-MS/MS); type: physicochemical; conditions: 20 μM 8, assay buffer pH 7.4, 30 °C
# Protocol: (§1) Mass spectrometry quantification of inhibitors/reaction products was carried out with a Shimadzu LCMS-8040 instrument (Shimadzu, HPLC Prominence system). Analytes were separated on a Kinetex XB-C18 2.6 μm, 100 Å column (50 × 2.1 mm; Phenomenex) in a linear 15–60% CH3CN/H2O gradient containing 0.1% formic acid at a flow rate of 0.8 mL min^–1 over 4 min. Multiple reaction monitoring (MRM) parameters were optimized for each analyte, and corresponding major CID fragments were used for quantification. Analytes were quantified using corresponding calibration curves generated from pure compounds dissolved in water.
# Twenty micromolar solutions of compounds were mixed with 1 μM zHDAC6 in a 96-well plate in an assay buffer comprising 50 mM HEPES, 140 mM NaCl, and 10 mM KCl at pH 7.4. […] Four microliter aliquots of reaction mixtures were injected into the system directly from the 96-well plate, and inhibitors/reaction products were quantitated as described above.
# HEK293T cell lysates = assay: Inhibitor hydrolysis in HEK293T cell lysates (LC-MS/MS); type: in vitro ADME; conditions: 20 μM 8, 2.5 mg mL^–1 protein, 37 °C
# Protocol: as §1
# HEK293T cells and the HEK293T cell line stably transfected with human HDAC6 were grown in FreeStyle 293 medium supplemented with 1% FBS. Cells were harvested by centrifugation at 500g for 5 min, and cell pellets were resuspended in the lysis buffer (50 mM HEPES, 140 mM NaCl, 10 mM KCl, and 0.5% NP-40 at pH 7.4). Following short sonication (3 × 5 s), the cell lysates were centrifuged at 20,000g for 10 min, supernatants were transferred to fresh tubes, and the total protein concentration was adjusted to 4 mg mL^–1 by the addition of the lysis buffer. […] Following 15 min incubation on ice, stopped reactions were centrifuged at 20,000g for 10 min, and supernatants were analyzed by LC–MS as described above.
smiles,measurement,setting,value
CS(=O)(=O)N(Cc1ccc(-c2nnc(C(F)F)o2)cn1)c1cccc(Cl)c1 [compound 8],efficiency of hydrolysis in HEK293/HDAC6 lysate versus HEK293 lysate,[1],more efficient
same,hydrolysis in HEK293/HDAC6 cell lysate,[1],hydrolyzed 8 to 6 and 4
same,time of near-complete depletion of the inhibitor,wild-type zHDAC6,approximately 120 min
same,time to full hydrolysis of the inhibitor,wild-type zHDAC6,< 180 min
same,hydrolysis in the control reaction without the enzyme,[2],no hydrolysis was observed
same,hydrolysis in HEK293T cell lysate,HEK293T cell lysates,hydrolyzed 8 to 6 and 4
